# From article PMC12527922, “Cocaine chemogenetics blunts drug-seeking by synthetic physiology” (Nature, 2025)
# What was measured:
# [1] = test system: [^18F]fallypride binding at D2/D3 receptors (extracellular dopamine); experiment: [^18F]fallypride PET, rats with coca-5HT3 in the LHb and controls; type: in vivo, rat
# Description: Male Sprague–Dawley rats were anaesthetized with isoflurane (1.5-2%) and then placed onto a stereotaxic frame (Kopf) and injected with AAV5-Syn::coca-5HT3-IRES-mCherry (0.5 µl, 4.95 × 10^12 vg per ml) into the LHb (AP relative to bregma, −3.8 mm; ML, ±0.7 mm; DV, −5.25 mm, at a 10° angle) (n = 5) or underwent sham surgery (n = 9). Male Th-cre rats were anaesthetized with isoflurane (1.5–2%) and then placed onto a stereotaxic frame (Kopf) and injected with AAV1-Syn::FLEX-coca-GlyR-IRES-mCherry (0.5 µl, 6 × 10^12 vg per ml) into the VTA (AP, −6.0 mm relative to bregma; ML, ±1.9 mm; DV, −8.3 mm at a 10° angle) (n = 9) or underwent sham surgery (n = 6). Approximately 3 weeks later, the rats were anaesthetized, placed inside the PET scanner (Mediso NanoScan PET/CT), injected with [^18F]fallypride (~13 MBq) and then scanned using PET. [^18F]fallypride reaches steady-state by around 45 min after its injection and then remains stable for at least 150 min[60]. […] The PET data were reconstructed and corrected for dead-time and radioactive decay and then co-registered to an magnetic resonance imaging template as previously described[46],[60],[61]. Co-registered images were analysed using one-way ANOVA and the resulting parametric images were filtered for statistically significant (P < 0.01) clusters larger than 100 contiguous voxels. All statistical parametric mapping (SPM) analyses were performed using MATLAB R2016 (MathWorks) and SPM12 (University College London)[62]. Next, additional quantitative assessments of PET images were performed using the PMOD software environment (PMOD Technologies). We generated time–activity curves using the co-registered dynamic PET images and the significant voxel clusters defined by the voxel-wise SPM analysis as the volume of interest. The standardized uptake value (SUV) was calculated using the equation SUV = C/(dose/BW) where C is the tissue concentration of [^18F]fallypride (kBq cm^−3), dose is the administered dose (MBq) and BW (kg) is the animal’s body weight. Statistical analyses were performed using Prism 10 (GraphPad).
# [2] = molecular target: α7–GlyR mutant chimeric channels (Homo sapiens, UniProt P36544, P216V); experiment: Membrane potential assay screen, mutant α7–GlyR chimeric channels; type: cell-based; conditions: EC50 at α7 GlyR P216V, sheet 1d
# [3] = molecular target: α7–GlyR mutant chimeric channels (Homo sapiens, UniProt P36544, Q79A); experiment: as above; type: cell-based; conditions: EC50 at α7-GlyR Q79A, sheet 1d
# [4] = molecular target: α7–GlyR mutant chimeric channels (Homo sapiens, UniProt P36544, P216M); experiment: as above; type: cell-based; conditions: EC50 at α7 GlyR P216M, sheet 1d
# [5] = molecular target: α7–GlyR mutant chimeric channels (Homo sapiens, UniProt P36544, Q139G); experiment: as above; type: cell-based; conditions: EC50 at α7 GlyR Q139G, sheet 1d
# [6] = molecular target: α7–GlyR mutant chimeric channels (Homo sapiens, UniProt P36544, Q79S); experiment: as above; type: cell-based; conditions: EC50 at α7-GlyR Q79S, sheet 1d
# α7–GlyR mutant chimeric channels (Homo sapiens, UniProt P36544, Q79S), sequence (P36544 23-230 Q79S): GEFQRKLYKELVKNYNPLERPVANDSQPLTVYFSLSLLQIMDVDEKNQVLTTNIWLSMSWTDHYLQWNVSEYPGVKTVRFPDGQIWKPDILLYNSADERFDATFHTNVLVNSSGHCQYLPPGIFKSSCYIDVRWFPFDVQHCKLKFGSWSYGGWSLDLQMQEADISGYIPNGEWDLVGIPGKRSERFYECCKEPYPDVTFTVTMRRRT
# α7–GlyR mutant chimeric channels (Homo sapiens, UniProt P36544, Q79S), sequence (P23415 248-457 partner): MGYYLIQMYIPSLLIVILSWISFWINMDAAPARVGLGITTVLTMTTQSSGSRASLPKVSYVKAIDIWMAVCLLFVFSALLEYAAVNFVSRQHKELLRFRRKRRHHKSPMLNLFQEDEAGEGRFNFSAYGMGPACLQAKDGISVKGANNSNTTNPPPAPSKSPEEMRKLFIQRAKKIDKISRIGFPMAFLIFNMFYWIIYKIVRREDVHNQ
# α7–GlyR mutant chimeric channels (Homo sapiens, UniProt P36544, P216M), sequence (P36544 23-230 P216M): as the sequence (P36544 23-230 Q79S) above, with S57Q, P194M counted along it
# α7–GlyR mutant chimeric channels (Homo sapiens, UniProt P36544, P216M), sequence (P23415 248-457 partner): as the sequence (P23415 248-457 partner) above
# α7–GlyR mutant chimeric channels (Homo sapiens, UniProt P36544, Q139G), sequence (P36544 23-230 Q139G): as the sequence (P36544 23-230 Q79S) above, with S57Q, Q117G counted along it
# α7–GlyR mutant chimeric channels (Homo sapiens, UniProt P36544, Q139G), sequence (P23415 248-457 partner): as the sequence (P23415 248-457 partner) above
# α7–GlyR mutant chimeric channels (Homo sapiens, UniProt P36544, P216V), sequence (P36544 23-230 P216V): as the sequence (P36544 23-230 Q79S) above, with S57Q, P194V counted along it
# α7–GlyR mutant chimeric channels (Homo sapiens, UniProt P36544, P216V), sequence (P23415 248-457 partner): as the sequence (P23415 248-457 partner) above
# α7–GlyR mutant chimeric channels (Homo sapiens, UniProt P36544, Q79A), sequence (P36544 23-230 Q79A): as the sequence (P36544 23-230 Q79S) above, with S57A counted along it
# α7–GlyR mutant chimeric channels (Homo sapiens, UniProt P36544, Q79A), sequence (P23415 248-457 partner): as the sequence (P23415 248-457 partner) above
smiles,measurement,setting,value
COC(=O)[C@H]1[C@@H](OC(=O)c2ccccc2)C[C@@H]2CC[C@H]1N2C [cocaine],"Cerebellum, Mean","[1]; Coca-5HT3, Time 60 min",111.27
same,"Striatum, Mean","[1]; Coca-5HT3, Time 60 min",100.47
same,"Cerebellum, Mean","[1]; Coca-5HT3, Time 63 min",107.441
same,"Striatum, Mean","[1]; Coca-5HT3, Time 63 min",99.116
same,"Cerebellum, Mean","[1]; Coca-5HT3, Time 66 min",105.193
same,"Striatum, Mean","[1]; Coca-5HT3, Time 66 min",105.45
same,"Cerebellum, Mean","[1]; Coca-5HT3, Time 69 min",101.891
same,"Striatum, Mean","[1]; Coca-5HT3, Time 69 min",101.914
same,"Cerebellum, Mean","[1]; Coca-5HT3, Time 72 min",100.511
same,"Striatum, Mean","[1]; Coca-5HT3, Time 72 min",99.6684
same,"Cerebellum, Mean","[1]; Coca-5HT3, Time 75 min",97.2849
same,"Striatum, Mean","[1]; Coca-5HT3, Time 75 min",101.446
same,"Cerebellum, Mean","[1]; Coca-5HT3, Time 78 min",98.3773
same,"Striatum, Mean","[1]; Coca-5HT3, Time 78 min",97.1795
same,"Cerebellum, Mean","[1]; Coca-5HT3, Time 81 min",97.6857
same,"Striatum, Mean","[1]; Coca-5HT3, Time 81 min",99.4438
same,"Cerebellum, Mean","[1]; Coca-5HT3, Time 84 min",92.2137
same,"Striatum, Mean","[1]; Coca-5HT3, Time 84 min",99.5545
same,"Cerebellum, Mean","[1]; Coca-5HT3, Time 87 min",94.6333
same,"Striatum, Mean","[1]; Coca-5HT3, Time 87 min",100.176
same,"Cerebellum, Mean","[1]; Coca-5HT3, Time 90 min",93.4987
same,"Striatum, Mean","[1]; Coca-5HT3, Time 90 min",95.582
same,"Cerebellum, Mean","[1]; Coca-5HT3, Time 92 min",99.4012
same,"Striatum, Mean","[1]; Coca-5HT3, Time 92 min",95.8906
same,"Cerebellum, Mean","[1]; Coca-5HT3, Time 94 min",96.5331
same,"Striatum, Mean","[1]; Coca-5HT3, Time 94 min",92.7294
same,"Cerebellum, Mean","[1]; Coca-5HT3, Time 96 min",96.1496
same,"Striatum, Mean","[1]; Coca-5HT3, Time 96 min",97.7961
same,"Cerebellum, Mean","[1]; Coca-5HT3, Time 98 min",96.6515
same,"Striatum, Mean","[1]; Coca-5HT3, Time 98 min",98.5867
same,"Cerebellum, Mean","[1]; Coca-5HT3, Time 100 min",92.3336
same,"Striatum, Mean","[1]; Coca-5HT3, Time 100 min",97.1381
same,"Cerebellum, Mean","[1]; Coca-5HT3, Time 104 min",94.2368
same,"Striatum, Mean","[1]; Coca-5HT3, Time 104 min",97.3152
same,"Cerebellum, Mean","[1]; Coca-5HT3, Time 106 min",94.1983
same,"Striatum, Mean","[1]; Coca-5HT3, Time 106 min",95.2722
same,"Cerebellum, Mean","[1]; Coca-5HT3, Time 110 min",94.753
same,"Striatum, Mean","[1]; Coca-5HT3, Time 110 min",92.686
same,"Cerebellum, Mean","[1]; Coca-5HT3, Time 112 min",89.5645
same,"Striatum, Mean","[1]; Coca-5HT3, Time 112 min",94.0331
same,"Cerebellum, Mean","[1]; Coca-5HT3, Time 116 min",89.6884
same,"Striatum, Mean","[1]; Coca-5HT3, Time 116 min",93.7732
same,"Cerebellum, Mean","[1]; Coca-5HT3, Time 118 min",92.5349
same,"Striatum, Mean","[1]; Coca-5HT3, Time 118 min",94.2486
same,"Cerebellum, Mean","[1]; Coca-5HT3, Time 120 min",85.32
same,"Striatum, Mean","[1]; Coca-5HT3, Time 120 min",92.7482
same,"Cerebellum, Mean","[1]; Control, Time 60 min",103.946
same,"Striatum, Mean","[1]; Control, Time 60 min",104.425
same,"Cerebellum, Mean","[1]; Control, Time 63 min",103.573
same,"Striatum, Mean","[1]; Control, Time 63 min",105.053
same,"Cerebellum, Mean","[1]; Control, Time 66 min",103.781
same,"Striatum, Mean","[1]; Control, Time 66 min",101.615
same,"Cerebellum, Mean","[1]; Control, Time 69 min",101.695
same,"Striatum, Mean","[1]; Control, Time 69 min",102.645
same,"Cerebellum, Mean","[1]; Control, Time 72 min",100.786
same,"Striatum, Mean","[1]; Control, Time 72 min",99.1445
same,"Cerebellum, Mean","[1]; Control, Time 75 min",98.0752
same,"Striatum, Mean","[1]; Control, Time 75 min",97.188
same,"Cerebellum, Mean","[1]; Control, Time 78 min",100.961
same,"Striatum, Mean","[1]; Control, Time 78 min",99.7495
same,"Cerebellum, Mean","[1]; Control, Time 81 min",99.7275
same,"Striatum, Mean","[1]; Control, Time 81 min",97.1175
same,"Cerebellum, Mean","[1]; Control, Time 84 min",97.0682
same,"Striatum, Mean","[1]; Control, Time 84 min",97.2682
same,"Cerebellum, Mean","[1]; Control, Time 87 min",95.0129
same,"Striatum, Mean","[1]; Control, Time 87 min",98.2036
same,"Cerebellum, Mean","[1]; Control, Time 90 min",95.374
same,"Striatum, Mean","[1]; Control, Time 90 min",97.5908
same,"Cerebellum, Mean","[1]; Control, Time 92 min",99.2942
same,"Striatum, Mean","[1]; Control, Time 92 min",96.7723
same,"Cerebellum, Mean","[1]; Control, Time 94 min",98.6955
same,"Striatum, Mean","[1]; Control, Time 94 min",94.2988
same,"Cerebellum, Mean","[1]; Control, Time 96 min",97.5545
same,"Striatum, Mean","[1]; Control, Time 96 min",90.3041
same,"Cerebellum, Mean","[1]; Control, Time 98 min",95.1481
same,"Striatum, Mean","[1]; Control, Time 98 min",92.8392
same,"Cerebellum, Mean","[1]; Control, Time 100 min",95.7886
same,"Striatum, Mean","[1]; Control, Time 100 min",87.2087
same,"Cerebellum, Mean","[1]; Control, Time 104 min",93.5542
same,"Striatum, Mean","[1]; Control, Time 104 min",88.7106
same,"Cerebellum, Mean","[1]; Control, Time 106 min",95.3248
same,"Striatum, Mean","[1]; Control, Time 106 min",84.6758
same,"Cerebellum, Mean","[1]; Control, Time 110 min",94.4655
same,"Striatum, Mean","[1]; Control, Time 110 min",84.755
same,"Cerebellum, Mean","[1]; Control, Time 112 min",92.6418
same,"Striatum, Mean","[1]; Control, Time 112 min",85.4315
same,"Cerebellum, Mean","[1]; Control, Time 116 min",92.1838
same,"Striatum, Mean","[1]; Control, Time 116 min",85.918
same,"Cerebellum, Mean","[1]; Control, Time 118 min",92.0673
same,"Striatum, Mean","[1]; Control, Time 118 min",82.9007
same,"Cerebellum, Mean","[1]; Control, Time 120 min",91.4483
same,"Striatum, Mean","[1]; Control, Time 120 min",84.8826
same,"[^18F]fallypride binding, cocaine versus saline","[1]; control rats, cocaine 3 mg per kg i.v., nucleus accumbens and ventromedial dorsal striatum voxels",significantly decreased
same,EC50,[2]; Avg,> 30 µM
same,EC50,[2]; single determinations,> 30 µM
same,EC50,[3]; Avg,> 30 µM
same,EC50,[3]; single determinations,> 30 µM
same,EC50,[4]; Avg,> 30 µM
same,EC50,[4]; single determinations,> 30 µM
same,EC50,[5]; Avg,> 30 µM
same,EC50,[5]; single determinations,> 30 µM
same,EC50,[6]; Avg,> 30 µM
same,EC50,[6]; single determinations,> 30 µM
